# Patent US11583570B2, “Use of autoinducer-related pathway in inducing apoptosis and anti-infective therapy” (TSINGHUA UNIVERSITY, priority 2017, dated 2023)
# Legend:
# [1] = test system: 3OC12 HSL-induced cytotoxicity; assay: Caspase inhibitors against 3OC12 HSL cytotoxicity; format: cell-based; conditions: in comparison with 3OC12 HSL treatment alone
# Method: (§1) Cell apoptosis was detected with Annexin V/PI apoptosis detection Kit. Briefly, cells were stimulated with HSLs or left untreated. 6 hrs later, cells were collected and stained with Annexin VFITC and PI for 15 min at RT, then the apoptotic effect was measured by flow cytometry. OT-I or OT-II splenocytes were pulsed with specific peptides or PMA and ionomycin mixture with or without HSLs or TNF α plus cycloheximide. 24 hrs later, cells and supernatants were collected separately. For OT-I activation, cells were stained with CD69 and CD8. For OT-II activation, cells were stained with CD69 and CD4. Cell activation was measured by flow cytometry. All supernatants were detected for IL-2 secretion by ELISA.
# THP-1 cell line = assay: Annexin V/PI apoptosis detection, THP-1; format: cell-based, human; conditions: THP-1, 3OC plus Emricasan, 1 hr, AnnexinV and PI
# Method: as §1
# (§2) In order to verify TNFR1-FADD-caspase8-caspase3 pathway inhibitor can block immunocyte apoptosis caused by 3OC12-HSL clinically. The inventors use a clinical version of caspase inhibitor Emricasan as a test. […] To be specific, in a 12 plate, THP-1 cells were cultured with indicated concentrations of 3OC and Emricasan. After 1 hr, cells were collection for flow cytometric analysis of AnnexinV and PI. […] In FIG. 17b, live cell percentage of different treatment were enumerated by flow cytometry. Bar graphs of live cell percentage are depicted by mean±SEM. Then samples prepared as in FIG. 17a and FIG. 17b were used for WB analysis for the activation (cleavage) of Caspase 8 and 3. […]
# mouse splenocytes = assay: AnnexinV and PI staining, B6 splenocytes; format: cell-based
# Method: as §1, §2
# Caspase 8 and 3 = assay: WB analysis of Caspase 8 and 3 cleavage in THP-1; format: cell-based, human; conditions: THP-1, 1 hr and 2 hr
# Method: In order to verify TNFR1-FADD-caspase8-caspase3 pathway inhibitor can block immunocyte apoptosis caused by 3OC12-HSL clinically. The inventors use a clinical version of caspase inhibitor Emricasan as a test. […] To be specific, in a 12 plate, THP-1 cells were cultured with indicated concentrations of 3OC and Emricasan. After 1 hr, cells were collection for flow cytometric analysis of AnnexinV and PI. […] In FIG. 17b, live cell percentage of different treatment were enumerated by flow cytometry. Bar graphs of live cell percentage are depicted by mean±SEM. Then samples prepared as in FIG. 17a and FIG. 17b were used for WB analysis for the activation (cleavage) of Caspase 8 and 3. […] In FIG. 17c, the incubate time of the left panel is 1 hr, and the […] panel is 2 hr. (Casp 8: Caspase 8, Cld Casp 8: Cleaved-Caspase 8, Casp 3: Caspase 3, Cld Casp 3: Cleaved-Caspase 3). […] Furthermore, the inventors use B6 splenocytes (separated from C57BL/6 spleen) as the test.
# TNFR1 (1-293) mutant = molecular target: T1, TNFR1 (1-293) mutant (Homo sapiens, UniProt P19438); assay: Single molecule photo-bleaching step counting (MSFQ), TNFR1 in HELA cells; format: cell-based
# T1 construct: human TNFR1 (1-293) mutant was amplified from human TNFR1 with specific primers and cloned into peGFP-N1 vector; expressed in transfected cells; host or cells: HeLa cells
# T1 sequence (P19438 30-293): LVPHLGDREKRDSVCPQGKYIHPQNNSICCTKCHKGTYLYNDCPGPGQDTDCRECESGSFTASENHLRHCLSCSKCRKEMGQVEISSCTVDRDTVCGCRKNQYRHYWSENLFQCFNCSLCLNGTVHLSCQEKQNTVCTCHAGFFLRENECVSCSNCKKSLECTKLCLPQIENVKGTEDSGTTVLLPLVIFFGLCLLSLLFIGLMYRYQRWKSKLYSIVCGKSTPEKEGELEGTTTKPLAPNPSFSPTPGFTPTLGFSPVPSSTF
# Description: Then the cells were stimulated with HSLs, TNF α, or left untreated, and washed twice with PBS and fixed with 4% paraformaldehyde before imaging. GFP was excited at 488 nm with a laser power of 5 mW measured after the laser passing through the objective. […] The EM gain of the EMCCD camera was set at 300. Movies of 400 frames were acquired for each sample at a full-frame rate of 10 Hz. For imaging analysis, the background fluorescence was firstly subtracted from the movie acquired from the fixed cells using the rolling ball method in Image J software, and regions of interest on movies were selected manually according to the outline of cells. To analyze the bleaching steps, the fluorescence time courses of each fluorescent spots were first constructed by Image J plugin and bleaching steps were then counted manually.
# TNFR1 = molecular target: T2, TNFR1 (Mus musculus, UniProt P25118); assay: Quantum dot-based single particle tracking, TNFR1; format: cell-based
# T2 construct: To track individual TNFR1 on the cell membrane; endogenous in cells
# T2 sequence (P25118 30-454): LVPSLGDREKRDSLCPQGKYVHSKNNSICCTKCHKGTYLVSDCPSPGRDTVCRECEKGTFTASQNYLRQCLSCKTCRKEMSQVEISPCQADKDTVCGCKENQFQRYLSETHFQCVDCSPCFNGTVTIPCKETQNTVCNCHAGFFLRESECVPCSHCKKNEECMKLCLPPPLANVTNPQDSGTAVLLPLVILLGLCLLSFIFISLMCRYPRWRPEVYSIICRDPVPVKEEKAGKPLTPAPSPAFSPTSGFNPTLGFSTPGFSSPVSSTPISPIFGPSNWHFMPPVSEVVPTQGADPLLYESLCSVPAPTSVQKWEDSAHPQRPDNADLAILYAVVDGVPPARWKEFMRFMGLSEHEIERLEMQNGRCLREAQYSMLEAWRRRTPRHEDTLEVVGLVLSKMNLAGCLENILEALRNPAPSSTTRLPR
# Method: To track individual TNFR1 on the cell membrane, anti-TNFR1 IgG (was first papain digested to yield a Fab fragment. The Fab was then conjugated with biotin through the unique —SH at its C terminal. To prepare anti TNFR1 Fab QD conjugates, a solution of 0.7 nM anti TNFR1—Fab-biotin in 1 ml of DMEM was added drop-wise to 1 ml of 2 nM QD 605-streptavidin conjugate. Cell monolayers (50% confluent) previously serum starved for 1 hr were treated with 3OC12 HSL or left untreated and incubated with […] of the final anti TNFR1-Fab-QD solution at 25° C. for 2 min. The cells were then washed twice with PBS at 25° C., placed in serum-free medium, and loaded for imaging. For single-FcRγIIA tracking, Fc fragment was obtained by papain digestion of an anti-BSA IgG (Sigma Aldrich). Fc-QD conjugate was produced as described before. Cos-1 cells were transiently transfected with Fcγ RIIA plasmid, 24 hrs later, cells were stimulated with 3OC12 HSL or left untreated and incubated with […] of the final Fc-QD solution at 25° C. for 2 min. Quantum dot-labeled cells were imaged in TIRF mode. The fluorescence was excited at 488 nm and gated by a band-pass filter (575-640, Carl Zeiss). The excitation power was about 2 mW measured after the objective. Movies of 400 frames were acquired for each sample at a full-frame rate of 17 Hz. Individual trajectories were constructed by Utrack written in Matlab. Diffusion coefficient and plot area were calculated by customized programs written with Matlab. For motion pattern determination by MSD-t analysis 5: linear, simple Brownian diffusion; open-up parabolic, directed diffusion; open-down parabolic, restricted diffusion; and near zero, stationary.
compound,measurement,setting,value
Z-VAD,effect on 3OC12 HSL cytotoxicity,[1],reduced the cytotoxicity
C[C@H](NC(=O)C(=O)Nc1ccccc1C(C)(C)C)C(=O)N[C@@H](CC(=O)O)C(=O)COc1c(F)c(F)cc(F)c1F [Emricasan],blocking of 3OC12-HSL's apoptosis,THP-1 cell line,good effect in blocking 3OC12-HSL's apoptosis
same,blocking of 3OC12-HSL's apoptosis,mouse splenocytes,good effect in blocking 3OC12-HSL's apoptosis
same,blocking of Caspase 8 and 3 cleavage,Caspase 8 and 3,has effect in blocking 3OC12-HSL's apoptosis mediated by Caspase
CCCCCC(=O)CC(=O)N[C@H]1CCOC1=O [3-oxo-C8],TNFR1 trimerization (three step quenching),TNFR1 (1-293) mutant,failed to increase
TNFα,TNFR1 trimerization (three step quenching),TNFR1 (1-293) mutant,similarly occurred
MβCD,TNFR1 diffusion coefficient,TNFR1,higher diffusion coefficient
same,TNFR1 x-y surface area coverage,TNFR1,larger area coverage
